Experimental data reported in ChEMBL document CHEMBL3885881, “DrugMatrix”.

Organism: Rattus norvegicus
Assay: DrugMatrix - Regimen: Daily Repeat
Type: toxicity, organism-based, Sprague-Dawley
Set-up: regimen Daily Repeat, gender Male, age 6-8 weeks
Settings: in vivo, po, route oral GAVAGE, vehicle .5 % CMC; for BASOPHIL / EOSINOPHIL / ERYTHROCYTE COUNT / HEMATOCRIT / HEMOGLOBIN / LEUKOCYTE COUNT / LYMPHOCYTE / MEAN CORPUSCULAR HEMOGLOBIN / MEAN CORPUSCULAR HEMOGLOBIN CONCENTRATION / MEAN CORPUSCULAR VOLUME / MONOCYTE / NEUTROPHIL / PLATELET COUNT: tissue Blood; for ALANINE AMINOTRANSFERASE / ALBUMIN / ALKALINE PHOSPHATASE / ASPARTATE AMINOTRANSFERASE / BLOOD UREA NITROGEN / CHLORIDE / CHOLESTEROL / CREATINE PHOSPHOKINASE / CREATININE / GLUCOSE / PHOSPHORUS / POTASSIUM / SODIUM / TOTAL BILIRUBIN / TOTAL PROTEIN: tissue Plasma
[1] = 0 mg/kg, 72 h, dose level Control, time 3 day
[2] = 0 mg/kg, 120 h, dose level Control, time 5 day
[3] = 32 mg/kg, 72 h, dose level Low, time 3 day
[4] = 32 mg/kg, 120 h, dose level Low, time 5 day

SMILES: CC[C@H]1OC(=O)[C@H](C)[C@@H](O[C@H]2C[C@@](C)(OC)[C@@H](O)[C@H](C)O2)[C@H](C)[C@@H](O[C@@H]2O[C@H](C)C[C@H](N(C)C)[C@H]2O)[C@](C)(O)C[C@@H](C)/C(=N\OCOCCOC)[C@H](C)[C@@H](O)[C@]1(C)O [ROXITHROMYCIN]
- BASOPHIL [1]: 1.52%
- EOSINOPHIL [1]: 0.98%
- ERYTHROCYTE COUNT [1]: 6.96 x10E6/uL
- HEMATOCRIT [1]: 44.65%
- HEMOGLOBIN [1]: 13.62 G/DL
- LEUKOCYTE COUNT [1]: 9.83 x10E3/uL
- LYMPHOCYTE [1]: 76.48%
- MEAN CORPUSCULAR HEMOGLOBIN [1]: 19.57 pg
- MEAN CORPUSCULAR HEMOGLOBIN CONCENTRATION [1]: 30.47 G/DL
- MEAN CORPUSCULAR VOLUME [1]: 64.22 fL
- MONOCYTE [1]: 2.13%
- NEUTROPHIL [1]: 18.6%
- PLATELET COUNT [1]: 1217.17 x10E3/uL
- ALANINE AMINOTRANSFERASE [1]: 41 u/L
- ALBUMIN [1]: 3.77 G/DL
- ALKALINE PHOSPHATASE [1]: 411.83 u/L
- ASPARTATE AMINOTRANSFERASE [1]: 62.83 u/L
- BLOOD UREA NITROGEN [1]: 15.17 mg/dL
- CHLORIDE [1]: 104.33 MEQ/L
- CHOLESTEROL [1]: 71.17 mg/dL
- CREATINE PHOSPHOKINASE [1]: 123.5 u/L
- CREATININE [1]: 0.55 mg/dL
- GLUCOSE [1]: 182.67 mg/dL
- PHOSPHORUS [1]: 11.23 mg/dL
- POTASSIUM [1]: 7.03 MEQ/L
- SODIUM [1]: 148 MEQ/L
- TOTAL BILIRUBIN [1]: 0.57 mg/dL
- TOTAL PROTEIN [1]: 6.85 G/DL
- BASOPHIL [2]: 1.35%
- EOSINOPHIL [2]: 0.43%
- ERYTHROCYTE COUNT [2]: 6.96 x10E6/uL
- HEMATOCRIT [2]: 44.35%
- HEMOGLOBIN [2]: 13.98 G/DL
- LEUKOCYTE COUNT [2]: 9.45 x10E3/uL
- LYMPHOCYTE [2]: 80.83%
- MEAN CORPUSCULAR HEMOGLOBIN [2]: 20.1 pg
- MEAN CORPUSCULAR HEMOGLOBIN CONCENTRATION [2]: 31.52 G/DL
- MEAN CORPUSCULAR VOLUME [2]: 63.72 fL
- MONOCYTE [2]: 2.37%
- NEUTROPHIL [2]: 14.05%
- PLATELET COUNT [2]: 1298 x10E3/uL
- ALANINE AMINOTRANSFERASE [2]: 42.17 u/L
- ALBUMIN [2]: 3.77 G/DL
- ALKALINE PHOSPHATASE [2]: 419 u/L
- ASPARTATE AMINOTRANSFERASE [2]: 66.67 u/L
- BLOOD UREA NITROGEN [2]: 16.67 mg/dL
- CHLORIDE [2]: 103.17 MEQ/L
- CHOLESTEROL [2]: 66.33 mg/dL
- CREATINE PHOSPHOKINASE [2]: 148.33 u/L
- CREATININE [2]: 0.58 mg/dL
- GLUCOSE [2]: 196.83 mg/dL
- PHOSPHORUS [2]: 11.8 mg/dL
- POTASSIUM [2]: 6.47 MEQ/L
- SODIUM [2]: 148.33 MEQ/L
- TOTAL BILIRUBIN [2]: 0.53 mg/dL
- TOTAL PROTEIN [2]: 6.77 G/DL
- BASOPHIL [3]: 1.33%
- EOSINOPHIL [3]: 0.27%
- ERYTHROCYTE COUNT [3]: 7.39 x10E6/uL
- HEMATOCRIT [3]: 47.23%
- HEMOGLOBIN [3]: 14.73 G/DL
- LEUKOCYTE COUNT [3]: 12.3 x10E3/uL
- LYMPHOCYTE [3]: 88.63%
- MEAN CORPUSCULAR HEMOGLOBIN [3]: 19.9 pg
- MEAN CORPUSCULAR HEMOGLOBIN CONCENTRATION [3]: 31.13 G/DL
- MEAN CORPUSCULAR VOLUME [3]: 63.97 fL
- MONOCYTE [3]: 1.7%
- NEUTROPHIL [3]: 7.6%
- PLATELET COUNT [3]: 1462 x10E3/uL
- ALANINE AMINOTRANSFERASE [3]: 37.67 u/L
- ALBUMIN [3]: 3.7 G/DL
- ALKALINE PHOSPHATASE [3]: 340.33 u/L
- ASPARTATE AMINOTRANSFERASE [3]: 58.33 u/L
- BLOOD UREA NITROGEN [3]: 12.33 mg/dL
- CHLORIDE [3]: 104.67 MEQ/L
- CHOLESTEROL [3]: 59.67 mg/dL
- CREATINE PHOSPHOKINASE [3]: 128 u/L
- CREATININE [3]: 0.57 mg/dL
- GLUCOSE [3]: 224 mg/dL
- PHOSPHORUS [3]: 13.23 mg/dL
- POTASSIUM [3]: 6.93 MEQ/L
- SODIUM [3]: 148.67 MEQ/L
- TOTAL BILIRUBIN [3]: 0.4 mg/dL
- TOTAL PROTEIN [3]: 6.7 G/DL
- BASOPHIL [4]: 1.4%
- EOSINOPHIL [4]: 0.3%
- ERYTHROCYTE COUNT [4]: 7.37 x10E6/uL
- HEMATOCRIT [4]: 44.93%
- HEMOGLOBIN [4]: 14.13 G/DL
- LEUKOCYTE COUNT [4]: 11.7 x10E3/uL
- LYMPHOCYTE [4]: 81.47%
- MEAN CORPUSCULAR HEMOGLOBIN [4]: 19.27 pg
- MEAN CORPUSCULAR HEMOGLOBIN CONCENTRATION [4]: 31.5 G/DL
- MEAN CORPUSCULAR VOLUME [4]: 61.2 fL
- MONOCYTE [4]: 2.4%
- NEUTROPHIL [4]: 13.53%
- PLATELET COUNT [4]: 1353.33 x10E3/uL
- ALANINE AMINOTRANSFERASE [4]: 35.67 u/L
- ALBUMIN [4]: 3.57 G/DL
- ALKALINE PHOSPHATASE [4]: 391.67 u/L
- ASPARTATE AMINOTRANSFERASE [4]: 57.67 u/L
- BLOOD UREA NITROGEN [4]: 12.67 mg/dL
- CHLORIDE [4]: 103 MEQ/L
- CHOLESTEROL [4]: 66.33 mg/dL
- CREATINE PHOSPHOKINASE [4]: 131.67 u/L
- CREATININE [4]: 0.57 mg/dL
- GLUCOSE [4]: 185.67 mg/dL
- PHOSPHORUS [4]: 12.77 mg/dL
- POTASSIUM [4]: 6.73 MEQ/L
- SODIUM [4]: 148.33 MEQ/L
- TOTAL BILIRUBIN [4]: 0.3 mg/dL
- TOTAL PROTEIN [4]: 6.23 G/DL
